Assay results as given in patent publication US20090131444A1 (published 2009).
Structures can show the parent of a compound that is named as a salt.

SMILES | melting point
COc1ccc2nccc(NC(=O)[C@@H]3CC[C@@H](NCc4cc5c(cn4)OCCO5)CO3)c2n1 (as salt: hydrochloride) | > 230 °C (dec.)
COc1ccc2ncc(Cl)c(OC[C@@H]3CC[C@@H](NCc4cc5c(cn4)OCCO5)CO3)c2c1 (as salt: hydrochloride) | 191 °C
COc1ccc2ncc(Cl)c(NC(=O)[C@@H]3CC[C@@H](NCc4cc5c(cn4)OCCO5)CO3)c2c1 (as salt: hydrochloride) | 220 °C
